# In patent publication US20240192235A1, “CERAMIDE AND SPINGOMYELIN IN NEUROLOGICAL DISORDERS” (Duke University, priority 2021, published 2024):
# What was measured:
# [1] = biological target: SP1 R1 (Homo sapiens, UniProt P21453); settings: cited from earlier work
# [2] = cited from earlier work
# [3] = Fingolimod plasma concentration after oral administration to WT mice (UHPLC, MS-MS); assay type: in vivo; settings: both sexes, C57BL/6J, mouse, oral 1 mg/kg/day, read-out: Fingolimod levels in plasma
# Protocol: To determine if fingolimod (e.g., Gilenya®, Novartis) oral administration achieves appropriate plasma concentration, 8 WT mice at 7 months old (50% females) were treated with fingolimod at 1 mg/kg/day for 4 wks. Plasma samples were collected at two time points (2nd and 4th weeks) after treatment and analyzed by UHPLC and MS-MS. Fingolimod levels in plasma were in ng/mL: 2nd week=8.03±0.24 and 4th week=10.02±0.4.
# [4] = system: WT and APP/PS1 mice; test: Novel object recognition (NOR) test; assay type: in vivo; settings: 1 mg/kg/day for eight weeks
# Description: (§1) APPswe/PS1dE9 (referred to as APP/PS1) and C57BI/6J (referred to as WT) mice were purchased from The Jackson Laboratory. The APP/PS1 is a double transgenic mouse expressing a chimeric mouse/human amyloid precursor protein (Mo/HuAPP695swe) and a mutant human presenilin 1 (PS1-dE9), both directed to CNS neurons. 50% of animals used in all experiments were male.
# (§2) APP/PS1 mice and their WT littermates were used to examine fingolimod effects in vivo. Fingolimod treatment was provided in drinking water in a dark container and changed every 48 h to provide 1 mg/kg/day.
# Mice were habituated to experimental apparatus consisting of a gray rectangular open field (60 cm×50 cm×26 cm) for 5 min in the absence of any objects for 3 days. On the third day, after the habituation trial, mice were placed in the experimental apparatus in the presence of two identical objects and allowed to explore them for 5 min. […] All sessions were recorded using Noldus Media Recorder software. Exploration of the objects was defined as the mice facing and sniffing the objects within 2 cm distance and/or touching them, assessed with ANY-maze software. The ability of the mouse to recognize the novel object (discrimination index) was determined by dividing the mean time exploring the novel object by the mean of the total time exploring the novel and familiar objects during the test session. […]
# [5] = system: WT and APP/PS1 mice; test: Barnes Maze task; assay type: in vivo; settings: 1 mg/kg/day for eight weeks, probe trial
# Description: as §1, §2
# The behavioral apparatus consisted of a white flat, circular disk with 20 holes around its perimeter. One hole held the entrance to a darkened escape box not visible from the surface of the board, allowing the subject to exit the maze. The escape chamber position remained fixed during all trials. Mice learn the location of the escape hole using spatial reference points that were fixed in relation to the maze (extra-maze cues). The task consisted of one habituation trial on day 1 where the escape hole was presented to the animal, the animal remained in the escape box for 2 min. […] All sessions were recorded using Debut video software and assessed through ANY-maze software. For each trial, several parameters were recorded to assess performance. […] For the probe trial, time spent in the target quadrant and target hole were analyzed. […]
# [6] = fingolimod-treated APP/PS1 mice
# Sequence of SP1 R1 (P21453 whole entry): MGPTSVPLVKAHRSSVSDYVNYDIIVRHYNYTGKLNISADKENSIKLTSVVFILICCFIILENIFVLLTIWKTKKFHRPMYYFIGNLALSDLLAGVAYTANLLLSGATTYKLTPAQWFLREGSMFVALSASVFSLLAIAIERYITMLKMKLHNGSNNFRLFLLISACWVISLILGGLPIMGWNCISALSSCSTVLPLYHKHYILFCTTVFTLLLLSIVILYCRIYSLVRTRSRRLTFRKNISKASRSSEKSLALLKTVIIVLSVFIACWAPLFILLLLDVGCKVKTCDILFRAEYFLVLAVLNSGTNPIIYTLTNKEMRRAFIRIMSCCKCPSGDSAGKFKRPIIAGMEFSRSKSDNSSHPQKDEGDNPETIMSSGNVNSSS
smiles,measurement,setting,value
FC(F)(F)c1cccc(-c2noc(-c3cc(-c4ccccc4)c(C(F)(F)F)s3)n2)c1 [SEW2871],Aβ mediated behavior abnormalities,[1],improve
same,tau phosphorylation,[1],decrease
CC(C)Oc1ccc(-c2nc(-c3cccc4c3CC[C@@H]4NCCO)no2)cc1C#N [Ozanimod],cognitive processing speed as assessed by the Symbol Digit Modalities Test,[2]; compared to IFNβ1a treatment,improved
same,loss of thalamic volume,[2]; compared to IFNβ1a treatment,slower
CCc1cc(/C(C)=N/OCc2ccc(C3CCCCC3)c(C(F)(F)F)c2)ccc1CN1CC(C(=O)O)C1 [Siponimod],Symbol Digit Modalities Test (SDMT) oral score,"[2]; compared with placebo, study months 12 and 24",benefit in favor of Siponimod
same,Brief Visuospatial Memory Test-Revised,[2]; compared with placebo,no statistically significant differences between groups
same,PASAT score,[2]; compared with placebo,no statistically significant differences between groups
same,low contrast visual acuity test,[2]; compared with placebo,small benefit in favor of Siponimod
CCCCCCCCc1ccc(CCC(N)(CO)CO)cc1 [fingolimod],concentration at 2 weeks,[3]; 2nd week,8.03 ± 0.24 ng/mL
same,concentration at 4 weeks,[3]; 4th week,10 ± 0.4 ng/mL
same,NOR discrimination index (NOR-DI),[4]; [6],0.40±0.13
same,NOR discrimination index (NOR-DI),[4]; fingolimod-treated WT mice,0.47±0.08
same,percentage of time spent in the target quadrant,[5]; [6],54.81±9.15%
same,percentage of time spent in the target quadrant,[5]; fingolimod-treated WT mice,63.46±11.51%
